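Test compounds were applied to cells in 96-well plates for 48 hours at 5 doses. At the GI50, growth is halved.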 Calls of active or inactive are those of the source. Rule as the data show it: active = GI50 up to about 1.1 µM and inactive = higher.
Assays:
Experiment in all cases: inhibition of tumour cell growth, NCI panel, 48 h
[1] = test system: SN12C
[2] = test system: CCRF-CEM
[3] = test system: SW-620
[4] = test system: OVCAR-4
[5] = test system: RXF 393
[6] = test system: HOP-62
[7] = test system: EKVX
[8] = test system: K562
[9] = test system: Malme-3M
[10] = test system: SK-OV-3
[11] = test system: HCT-116
[12] = test system: RPMI-8226
[13] = test system: OVCAR-5
[14] = test system: SNB-19
[15] = test system: NCI-H23
[16] = test system: NCI-H226
[17] = test system: HL-60

Row | SMILES | GI50 [1] | GI50 [2] | GI50 [3] | GI50 [4] | GI50 [5] | GI50 [6] | GI50 [7] | GI50 [8] | GI50 [9] | GI50 [10] | GI50 [11] | GI50 [12] | GI50 [13] | GI50 [14] | GI50 [15] | GI50 [16] | GI50 [17]
1 | O=C(O)[C@H](NS(=O)(=O)c1ccc(F)cc1)c1ccccc1 | > 100 µM (inactive) | > 100 µM (inactive) | > 100 µM (inactive) | > 100 µM (inactive) | > 100 µM (inactive) | > 100 µM (inactive) | > 100 µM (inactive) | > 100 µM (inactive) | > 100 µM (inactive) | > 100 µM (inactive) | > 100 µM (inactive) | > 100 µM (inactive) | > 100 µM (inactive) | > 100 µM (inactive) | > 100 µM (inactive) | > 100 µM (inactive) | –
2 | CN/C(=N/C#N)NCc1ccccc1 | > 100 µM (inactive) | > 100 µM (inactive) | > 100 µM (inactive) | > 100 µM (inactive) | – | > 100 µM (inactive) | 0.0512 µM (active) | – | > 100 µM (inactive) | > 100 µM (inactive) | > 100 µM (inactive) | > 100 µM (inactive) | > 100 µM (inactive) | > 100 µM (inactive) | > 100 µM (inactive) | > 100 µM (inactive) | > 100 µM (inactive)
3 | COc1ccc(NC(=O)/C(=C/c2ccccc2)C(C)=O)cc1 | 14.4 µM (inactive) | 6.12 µM (inactive) | 16.2 µM (inactive) | 11.6 µM (inactive) | – | 18 µM (inactive) | 22.5 µM (inactive) | 12.5 µM (inactive) | 16.5 µM (inactive) | 40.2 µM (inactive) | – | 5.24 µM (inactive) | 19.6 µM (inactive) | 16.2 µM (inactive) | > 10 µM (inactive) | 19.2 µM (inactive) | 3.39 µM (inactive)
4 | NC(=O)c1c(-c2ccccc2)c(-c2ccccc2)cc2c(=O)c3ccccc3[nH]c12 | 40 µM (inactive) | 31.4 µM (inactive) | 37.1 µM (inactive) | 12.5 µM (inactive) | – | 24.2 µM (inactive) | 41.2 µM (inactive) | 30.3 µM (inactive) | 17.9 µM (inactive) | 25.3 µM (inactive) | 14.4 µM (inactive) | 28.4 µM (inactive) | 65.8 µM (inactive) | 21 µM (inactive) | 17.5 µM (inactive) | – | –
5 | COc1cc2cccc(/N=C\c3cccc(OC)c3OC(C)C)c2cc1OC | 40.1 µM (inactive) | 21.2 µM (inactive) | 21 µM (inactive) | 18.7 µM (inactive) | – | 26.5 µM (inactive) | 52 µM (inactive) | 15.6 µM (inactive) | 22.3 µM (inactive) | 25.2 µM (inactive) | – | 13.2 µM (inactive) | > 100 µM (inactive) | – | 23.4 µM (inactive) | – | –
6 | N=C(N)NS(=O)(=O)c1ccc(NC(=O)c2cccc3cc4ccccc4nc23)cc1 | > 100 µM (inactive) | 6.56 µM (inactive) | 66.8 µM (inactive) | 28 µM (inactive) | > 100 µM (inactive) | 94.2 µM (inactive) | > 100 µM (inactive) | 53 µM (inactive) | > 100 µM (inactive) | > 100 µM (inactive) | 19.3 µM (inactive) | > 100 µM (inactive) | > 100 µM (inactive) | 9.79 µM (inactive) | > 100 µM (inactive) | 9.75 µM (inactive) | –
7 | Cc1cc2nc3c(=O)[nH]c(=O)nc-3n(CC(O)C(O)C(O)CO)c2cc1N (stereo unspecified) | > 100 µM (inactive) | > 100 µM (inactive) | > 100 µM (inactive) | > 100 µM (inactive) | – | – | > 100 µM (inactive) | > 100 µM (inactive) | – | > 100 µM (inactive) | > 100 µM (inactive) | > 100 µM (inactive) | – | > 100 µM (inactive) | > 100 µM (inactive) | > 100 µM (inactive) | > 100 µM (inactive)

Source: ChEMBL document CHEMBL1201862, “PubChem BioAssay data set” (2004)
